Laboratory results as given in US20250026724A1, “(1,4,5-TRISUBSTITUTED 1H-PYRAZOL-3-YL)OXY-2-ALKYLTHIOALKYL ACIDS AND -ALKYL ACID DERIVATIVES, SALTS THEREOF AND USE THEREOF AS ACTIVE HERBICIDAL INGREDIENTS” (BAYER AKTIENGESELLSCHAFT, priority 2021, published 2025).

Tests used:
Assay type in all cases: in vivo
[1] = tested on: Abutilon theophrasti (ABUTH); assay: Post-emergence herbicidal action, greenhouse pot trial; settings: visual rating after about 3 weeks
Method in brief: (§1)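 Visual % activity versus untreated controls (100% = plants died, 0% = like control), scored about 3 weeks post-spray. Plants grown in sandy loam pots under greenhouse conditions were treated at the one-leaf stage with WP or EC formulations at 320 g/ha or lower.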

[2] = tested on: Amaranthus retroflexus (AMARE); assay: as above; settings: visual rating after about 3 weeks
Method in brief: as §1

Bassia scoparia (KCHSC) = assay: as above
Method in brief: as §1

[3] = tested on: Echinochloa crus-galli (ECHCG); assay: as above; settings: for Post-emergence effect at 320 g/ha against ECHCG in %: visual rating after about 3 weeks
Method in brief: as §1

[4] = tested on: Pharbitis purpurea (PHBPU); assay: as above; settings: visual rating after about 3 weeks
Method in brief: as §1

[5] = tested on: Polygonum convolvulus (POLCO); assay: as above; settings: visual rating after about 3 weeks
Method in brief: as §1

Setaria viridis (SETVI) = assay: as above; settings: for Post-emergence effect at 320 g/ha against SETVI in %: visual rating after about 3 weeks
Method in brief: as §1

Viola tricolor (VIOTR) = assay: as above
Method in brief: as §1

[6] = tested on: Triticum aestivum (TRZAS); assay: Post-emergence crop plant compatibility, greenhouse pot trial; settings: post-emergence, in comparison to untreated controls
Method in brief: (§2)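 Crops grown in sandy loam, sprayed at one-leaf stage (2–3 weeks post-sowing) with WP or EC formulations plus 0.5% additive at 600 l/ha water. Damage rated visually after ~3 weeks versus untreated controls, as % (100% = dead); suffixes a–c denote dosages.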

Zea mays (ZEAMX) = assay: as above; settings: in comparison to untreated controls
Method in brief: as §2

Glycine max (GLXMA) = assay: as above; settings: in comparison to untreated controls
Method in brief: as §2

Oryza sativa (ORYSA) = assay: as above; settings: in comparison to untreated controls
Method in brief: as §2

Avena fatua (AVEFA) = assay: Post-emergence herbicidal action, greenhouse pot trial; settings: 320 g/ha, visual rating after about 3 weeks
Method in brief: as §1

[7] = tested on: Digitaria sanguinalis (DIGSA); assay: as above; settings: visual rating after about 3 weeks
Method in brief: as §1

Lolium rigidum (LOLRI) = assay: as above; settings: 320 g/ha, visual rating after about 3 weeks
Method in brief: as §1

[8] = tested on: Matricaria inodora (MATIN); assay: as above; settings: visual rating after about 3 weeks
Method in brief: as §1

[9] = tested on: Alopecurus myosuroides (ALOMY); assay: as above; settings: 320 g/ha, visual rating after about 3 weeks
Method in brief: as §1

Veronica persica (VERPE) = assay: as above; settings: visual rating after about 3 weeks
Method in brief: as §1

Compound	Post-emergence effect against TRZAS (crop plant compatibility) ([6]; 20 g/ha) [%]	Post-emergence effect against ZEAMX (crop plant compatibility) (Zea mays (ZEAMX); 20 g/ha) [%]	Post-emergence effect at 80 g/ha against ABUTH in % [1] [%]	Post-emergence effect at 320 g/ha against ABUTH in % [1] [%]	Post-emergence effect at 320 g/ha against AMARE in % [2] [%]	Post-emergence effect against KCHSC (Bassia scoparia (KCHSC); 320 g/ha) [%]	Post-emergence effect at 320 g/ha against ECHCG in % [3] [%]	Post-emergence effect at 80 g/ha against PHBPU in % [4] [%]	Post-emergence effect at 320 g/ha against PHBPU in % [4] [%]	Post-emergence effect at 80 g/ha against POLCO in % [5] [%]	Post-emergence effect at 320 g/ha against POLCO in % [5] [%]	Post-emergence effect at 320 g/ha against SETVI in % (Setaria viridis (SETVI)) [%]	Post-emergence effect against VIOTR (Viola tricolor (VIOTR); 20 g/ha) [%]	Post-emergence effect against VIOTR (Viola tricolor (VIOTR); 80 g/ha) [%]	Post-emergence effect against VIOTR (Viola tricolor (VIOTR); 320 g/ha) [%]	Post-emergence effect against GLXMA (crop plant compatibility) (Glycine max (GLXMA); 20 g/ha) [%]	Post-emergence effect against GLXMA (crop plant compatibility) (Glycine max (GLXMA); 80 g/ha) [%]	Post-emergence effect at 80 g/ha against AMARE in % [2] [%]	Post-emergence effect at 320 g/ha against DIGSA in % [7] [%]	Post-emergence effect at 320 g/ha against MATIN in % [8] [%]	other results
COC(=O)CCOC(=O)C(Oc1nn(-c2ncccc2F)c(-c2ccc(F)nc2)c1Br)SC (single isomer, unassigned) [Example I-22]	0	0	90	90	80	90	90	90	90	90	90	80	80	90	90						Post-emergence effect at 20 g/ha against PHBPU in % ([4]; 20 g/ha): 80%
CCOC(=O)C(Oc1nn(-c2cc(F)ccc2F)c(-c2cncc(F)c2)c1C1CC1)SC (stereo not shown) [Example I-05]	0	20														0	10				pest or weed control at 320 g/ha ([3]; Echinochloa crus-galli, 504 h, read-out: Post-emergence effect at 320 g/ha against ECHCG in %): 80%; pest or weed control at 320 g/ha (Setaria viridis (SETVI); Setaria viridis, 504 h, read-out: Post-emergence effect at 320 g/ha against SETVI in %): 90%; Post-emergence effect against ORYSA (crop plant compatibility) (Oryza sativa (ORYSA); 20 g/ha): 0%; Post-emergence effect against ORYSA (crop plant compatibility) (Oryza sativa (ORYSA); 80 g/ha): 0%; Post-emergence effect against ORYSA (crop plant compatibility) (Oryza sativa (ORYSA); 320 g/ha): 10%; Post-emergence effect against TRZAS (crop plant compatibility) ([6]; 80 g/ha): 10%
COC(=O)C(C)COC(=O)C(Oc1nn(-c2ccccc2F)c(-c2ccc(F)nc2)c1I)SC (stereo not shown) [Example I-53]	0			80	90	80	100		80		90	90		80	90	0	0		80	80	
COC(=O)CCOC(=O)C(Oc1nn(-c2ccccc2F)c(-c2ccc(F)nc2)c1I)SC (stereo not shown) [Example I-54]	0	0		80	90		90				80	90		80	90	0	0	90	80	80	Post-emergence effect at 320 g/ha against ALOMY in % [9]: 80%

Continued, in another order:

Post-emergence effect against TRZAS (crop plant compatibility) ([6]; 20 g/ha) [%]	Post-emergence effect against ZEAMX (crop plant compatibility) (Zea mays (ZEAMX); 20 g/ha) [%]	Compound	Post-emergence effect at 80 g/ha against ABUTH in % [1] [%]	Post-emergence effect at 320 g/ha against ABUTH in % [1] [%]	Post-emergence effect at 320 g/ha against AMARE in % [2] [%]	Post-emergence effect against KCHSC (Bassia scoparia (KCHSC); 320 g/ha) [%]	Post-emergence effect at 320 g/ha against ECHCG in % [3] [%]	Post-emergence effect at 80 g/ha against PHBPU in % [4] [%]	Post-emergence effect at 320 g/ha against PHBPU in % [4] [%]	Post-emergence effect at 80 g/ha against POLCO in % [5] [%]	Post-emergence effect at 320 g/ha against POLCO in % [5] [%]	Post-emergence effect at 320 g/ha against SETVI in % (Setaria viridis (SETVI)) [%]	Post-emergence effect against VIOTR (Viola tricolor (VIOTR); 20 g/ha) [%]	Post-emergence effect against VIOTR (Viola tricolor (VIOTR); 80 g/ha) [%]	Post-emergence effect against VIOTR (Viola tricolor (VIOTR); 320 g/ha) [%]	Post-emergence effect against GLXMA (crop plant compatibility) (Glycine max (GLXMA); 20 g/ha) [%]	Post-emergence effect against GLXMA (crop plant compatibility) (Glycine max (GLXMA); 80 g/ha) [%]	Post-emergence effect at 80 g/ha against AMARE in % [2] [%]	Post-emergence effect at 320 g/ha against DIGSA in % [7] [%]	Post-emergence effect at 320 g/ha against MATIN in % [8] [%]	other results
0	0	COC(=O)CCOC(=O)C(Oc1nn(-c2ncccc2F)c(-c2cncc(F)c2)c1Br)SC (stereo not shown) [Example I-45]	90	90	90	90	90	80	80	80	80	90	80	90	90			90	90	90	Post-emergence action at 20 g/ha against ABUTH in % [1]: 90%; Post-emergence effect at 20 g/ha against AMARE in % [2]: 80%; Post-emergence effect at 320 g/ha against AVEFA in % (Avena fatua (AVEFA)): 100%; Post-emergence effect at 20 g/ha against KCHSC in % (Bassia scoparia (KCHSC); 20 g/ha, visual rating after about 3 weeks): 90%; Post-emergence effect against KCHSC (Bassia scoparia (KCHSC); 80 g/ha): 90%; Post-emergence effect at 80 g/ha against DIGSA in % ([7]; 80 g/ha): 80%; Post-emergence effect at 320 g/ha against LOLRI in % (Lolium rigidum (LOLRI)): 100%; Post-emergence effect at 20 g/ha against MATIN in % ([8]; 20 g/ha): 80%; Post-emergence effect at 80 g/ha against MATIN in % [8]: 90%; Post-emergence effect against ZEAMX (crop plant compatibility) (Zea mays (ZEAMX); 80 g/ha): 0%
20	0	COC(=O)CCOC(=O)C(Oc1nn(-c2ncccc2F)c(-c2cncc(F)c2)c1C1CC1)SC (stereo not shown) [Example I-63]	80	90	90	90	90	90	90		80	90	90	90	90			80		90	Post-emergence action at 20 g/ha against ABUTH in % [1]: 80%; Post-emergence effect at 20 g/ha against AMARE in % [2]: 80%; Post-emergence effect at 320 g/ha against AVEFA in % (Avena fatua (AVEFA)): 100%; Post-emergence effect at 320 g/ha against LOLRI in % (Lolium rigidum (LOLRI)): 90%; Post-emergence effect at 80 g/ha against MATIN in % [8]: 80%; Post-emergence effect at 80 g/ha against VERPE in % (Veronica persica (VERPE); 80 g/ha): 80%; Post-emergence effect at 320 g/ha against VERPE in % (Veronica persica (VERPE); 320 g/ha): 90%
